In patent US20140322771A1, “Lipid Production” (THE UNIVERSITY OF QUEENSLAND, priority 2010, published 2014):
Entries after “also recorded” stand apart in the source; their conditions may differ.

Legend:
[1] = system: lipid droplets of S. cerevisiae mutant strains; assay: Lipidomic analysis of lipid droplets isolated from yeast (PE/PL and PL/TAG ratio); type: cell-based, Saccharomyces cerevisiae
Protocol: Lipid droplets were isolated as described in Fei et al. (Fei et al., (2008), “Fld1p, a functional homologue of human seipin, regulates the size of lipid droplets in yeast”, J Cell Biol 180: 473-482).
Lipids were extracted from zymolase-digested lyophilized yeast cells, isolated ER microsomes or lipid droplets. Briefly 900 μl ice-clod chlorofom:methanol (1:2) was added to samples. Mixtures were vigorously vortexed for 1 min, and incubated for 2 h in vacuum container with rotary shaking at 4° C. Then 400 μl ice-cold water and 300 μl chloroform were added, vortexed and incubated on ice for 1 min. After centrifugation at 12000 rpm for 3 min at 4° C., the lower organic phase was collected. Subsequently, 50 μl 1 M HCl and 500 μl chloroform were added to the remainder, vortexed, and incubated on ice for 3 min. The lower organic phase was also collected after centrifugation at 12000 rpm for 3 min at 4° C., and combined with the first extract. The extracted lipids were blown dry with nitrogen gas, and resuspended in solvent for mass spectrometry analysis.
Lipidomic analysis, and quantitative measurement of neutral lipids via thin layer chromatography (TLC) were performed as described in Fei et al. (Fei et al., (2008), “Fld1p, a functional homologue of human seipin, regulates the size of lipid droplets in yeast”, J Cell Biol 180: 473-482) and Low et al. (Low et al., (2008), “Caspase-dependent and -independent lipotoxic cell-death pathways in fission yeast”, J Cell Sci 121: 2671-2684). TLC plates were developed in chloroform/methanol/water (65:25:4) to separate phospholipid species.

[2] = system: S. cerevisiae WT and sld mutant strains; assay: Formation of supersized lipid droplets (SLDs) in yeast, Nile red staining and fluorescence microscopy; type: cell-based, Saccharomyces cerevisiae
Protocol: To screen for yeast mutants that generate supersized LDs, cells were cultured in synthetic complete media (0.67% yeast nitrogen base, 2% dextrose, and amino acids) in 96-well plates at 30° C. till stationary phase. For TetO7-regulated strains, 15 μg/ml doxycycline was added to repress specific genes. Cells were stained with 20 μg/ml Nile red for LDs and observed by fluorescence microscopy. Yeast strains found to contain SLDs were recultured in synthetic complete media with aeration in 10 ml culture tubes to confirm the phenotype. These strains were also grown in YPD media (1% yeast extract, 2% peptone, and 2% dextrose) to examine the morphology of LDs.
For phospholipid precursor treatment, synthetic complete medium was supplemented with 1 mM choline, 1 mM ethanolamine, or 75 μM inositol.
Fluorescent imaging was performed under a Leica CTR5500 microscope (Wetzlar, Germany) with an EL6000 fluorescent lamp. Images were taken with a DFC300 FX digital camera and a Leica LAS AF software. Yeast cells were viewed under a ×100/1.30 oil immersion objective lens. A 450-490-nm bandpass excitation filter, a 510 dichromatic mirror, and a 515-nm longpass emission filter (Leica filter cube I3) were chosen to observe Nile red-stained LDs. For statistical presentation of the percentage of cells containing supersized LDs, 200 cells were observed and percentage was calculated. The experiments were done in triplicates and the result was shown as mean±SD. Mammalian LDs were stained with Bodipy 493/503 (Invitrogen) and observed with a 470/40-nm bandpass excitation filter, a 500-nm dichromatic mirror, and a 525/50-nm bandpass emission filter (Leica filter cube GFP).

[3] = system: Chlamydomonas homologue of CDS1p (gene C—30067); assay: Lipid droplet accumulation in Chlamydomonas after RNAi knockdown of the CDS1p homologue (Nile red); type: cell-based; conditions: C. reinhardtii 21 gr transformed with hairpin RNAi construct, compared with wild type
Protocol: A hairpin RNAi construct was made by using 1st-3rd exon of the Chlamydomonas homologue of CDS1p driven by LC8 promoter. The gene name of the homologue is C—30067. The LC8 promoter is from Chlamydomonas.
This construct was transformed into Chlamydomonas using a glass-bead method. The selection marker for transformation was APHVIII, whose expression conferred resistant to paromomysin.
The survival strains on agar plates were screened by using Nile Red staining. 1 ug/ml final concentration of Nile red was used.
A Zeiss fluorescence microscope (Observer.Z1) with GFP filter was used for screening putative RNAi strains.

## NCCO [ethanolamine]
[1]; fld1Δ and cds1 cells, SC medium with ethanolamine
  proportion of PE on lipid droplets: significantly increased
[1]; ino4Δ cells, SC medium with ethanolamine
  PE to PL ratio of LDs: moderately increased
[2]; most of the mutants, SC media supplemented with 1 mM ethanolamine
  SLD formation: enhanced SLD formation in most of the mutants

## O[C@H]1[C@H](O)[C@@H](O)[C@H](O)[C@@H](O)[C@H]1O [inositol]
[1]; cds1 or ino4Δ mutant, inositol supplementation
  phospholipid to TAG ratio of LDs: did not increase
[2]; all sld mutants, SC media supplemented with 75 μM inositol
  SLD formation: reduced the SLD formation in all mutants; also recorded: significant reduction of SLD formation
[2]; ino4Δ cells, inositol addition, higher PE to PL ratio persisted
  biogenesis of supersized LDs: completely abolished the biogenesis of supersized LDs

## CCCCCCCC/C=C\CCCCCCCC(=O)O [oleate]
[2]; pah1Δ cells, supplement 1 mM each (about 3% of cells without supplement)
  number of cells producing SLD: no effect

B1: CDS1 gene RNAi: hairpin RNAi construct of exons 1-3 of the Chlamydomonas CDS1p homologue (C—30067, SEQ ID NO: 41), LC8 promoter (nucleic acid)
DNA: ATGCGACCAAAACAACAAGCTCAGGTCACCGCCGCGGAGGACACCGCGTCGGAGCCGGAGCCGGAGCCCAAGCCCGTGGATCGAAAGTCGAGGCTCAGGTCCTTCCGCGTACGCACCATCTCCTCGGTCTTGCTCATCGGCGGGTTCATCGGCATCATTTGGGCGGGTCATGTGCCGCTTATGTTCTTCATCCTGCTACTCCAGTTCCTGGTGGCCCGGGAGCTCTTCCGCATCGCCTACATAGCGGAGAAGTCCAAACGCAGCC
modifications: LC8 promoter; Hairpin RNAi construct targetting Chlamydomonas sp. CDS1p Homologue
[3]
  lipid droplet accumulation: accumulated lipid droplet drastically
